From patent US20250213627A1, “RECOMBINANT MICROORGANISM-BASED METHODS AND COMPOSITIONS FOR TREATMENT OF DISEASE” (Baylor College of Medicine, priority 2021, published 2025)
Ends that are not written are not given here.

Experiments:
[1] = test system: Kv1.3 versus Kv1.1 and other ion channels; conditions: cited from earlier work
[2] = test system: viral or bacterial infections in rats; conditions: rat, in vivo; cited from earlier work
[3] = test system: rat models of RA and multiple sclerosis; conditions: in vivo; cited from earlier work
[4] = test system: rodents, non-human primates, healthy humans, and patients; conditions: systemic administration; Phase 1A and 1B; cited from earlier work
[5] = test system: CCR7− TEM cells and CCR7+ naïve/TCM cells; test: [3H]-thymidine incorporation proliferation of T-cell subsets in presence of ShK-186; assay type: cell-based, human
Method: FIGS. 2A-2C. […] FIGS. 2A-2B. Naïve/TCM (▪) and TEM (▪) cells were separated based on CCR7 expression and activated in the presence of ShK-186, either immediately after isolation (FIG. 2A) or after an overnight pre-activation to induce the upregulation of either KV1.3 or KCa3.1 (FIG. 2B). FIG. 2C. TEM cells were activated with 10 (◯), 30 (▪), or 90 (▴) μg/ml antigen in the presence of ShK-186. In all aspects, T-cell proliferation was assessed via [3H] thymidine incorporation into the DNA of the dividing cells. Each data point represents mean±SD of triplicates.
The activation of CCR7^− TEM cells induces the upregulation of the Kv1.3 K^+ channel (FIG. 1)^8,9. In contrast, CCR7^+ naïve and central memory T (TCM) cells upregulate a different K^+ channel (KCa3.1) upon activation^8,9,35. The inventors therefore designed selective Kv1.3 blockers and assessed the sensitivity of the different T-cell subsets to Kv1.3 block. […] Without wishing to be bound by theory, this “escape” by naïve/TCM effectors may be due to up-regulation of the calcium-activated KCa3.1 channel that regulates membrane potential and Ca^2+ signaling in naïve/TCM effectors in place of Kv1.38. The significance of this finding is that in some aspects Kv1.3 blockers have an advantage over current immunotherapies because naïve and long-lived TCM cells (the main memory pool) would escape inhibition while TEM cells would be targeted.

active plaque psoriasis = conditions: doses as low at 30 μg/patient 3 times a week subcutaneously; cited from earlier work
Kv1.3 = Kv1.3 (Mus musculus, UniProt P16390); conditions: literature values; cited from earlier work
rats = test: Side effects of KCa1.1 blockers (urine spots, tremor measurements); assay type: in vivo, rat; conditions: single injection
Method: (§1) FIGS. 12A-12E. Blocking KCa1.1 reduces the severity of an animal model of RA. FIG. 12A. Effects of vehicle (□), paxilline (▪, 20 mg/kg), and iberiotoxin (IbTX, ▪, 0.5 mg/kg) in rats with PIA. Injections were given intraperitoneally (paxilline) or subcutaneously (IbTX), every other day, starting at onset of clinical signs. N=18 rats per group. FIG. 12B. Ex vivo invasiveness of FLS isolated from healthy rats or arthritic rats, treated with vehicle or IbTX. N=5 rats per group. FIG. 12C. Representative images from the joints of arthritic rats, treated with vehicle or IbTX, and stained with Safranin O-fast green (red: cartilage & bone marrow; blue: bone). FIG. 12D. Number of urine spots after rats received a single injection of vehicle, paxilline, or IbTX and were gavaged with 1 ml drinking water. N=6 rats per group. FIG. 12E. Representative tremor measurements in rats 10 min after the injection of vehicle, paxilline, or IbTX. *p<0.05, **p<0.01, ***p<0.001.
(§2) The inventors have tested the efficacy and safety of two KCa1.1 blockers, the small molecule paxilline that blocks KCa1.1 regardless of β subunit and the peptide IbTX that blocks only some αβ combinations of KCa1.1.

RA-FLS = RA-FLS proliferation and invasion assays; assay type: cell-based, human; conditions: supernatants or synthetic peptide
Method: For proliferation assays, RA-FLS are plated into 96 well plates and incubated for 48 hrs in the presence of media supplemented with either LrIbTX or LrIbTX[R34D] supernatants, known concentrations of synthetic IbTX, or the vehicle for IbTX. [3H] thymidine is added during the last 16-18 hrs of culture and the amount of [3H] thymidine incorporated into the DNA collected with a scintillation counter as a measure of cell division.
For invasion assays, RA-FLS are seeded in the upper compartment of a Matrigel-coated transwell and induced to cross into the lower compartment by the addition of FBS. The upper compartment is supplemented with either LrIbTX or LrIbTX[R34D] supernatants, synthetic IbTX, or the vehicle. The number of cells crossing into the lower compartment are counted as a measure of invasiveness.

KCa1.1 = KCa1.1 (Homo sapiens, UniProt Q12791); conditions: cited from earlier work
rat model of RA (PIA) = test: Pristane-induced arthritis (PIA) model treated with KCa1.1 blockers; assay type: in vivo; conditions: paxilline 20 mg/kg i.p., IbTX 0.5 mg/kg s.c., every other day from onset
Method: as §1, §2

rat CIA model of RA = test: CIA model treated with LrIbTX; assay type: in vivo; conditions: daily treatment for 3 weeks from onset
Source text: CIA is induced in male and female Lewis rats as described above and the rats monitored for clinical signs of arthritis. Treatment begins at onset of clinical signs, at which time rats are randomly assigned to the different treatment groups: oral LrIbTX, oral LrIbTX[R34D], injected synthetic IbTX, and injected vehicle. Treatment continues daily for 3 weeks. Rats are scored daily for CIA severity with a score of 2 given for each lightly swollen ankle or wrist, 5 for each severely swollen ankle and wrist, and 1 for each red and swollen small joint for a total of 15 per paw. At the end of the 3 weeks of treatment and scoring, rats are euthanized for collection of blood and hind limbs. Blood is used to prepare serum to detect circulating levels of IbTX. For each rat, the left hind limb is used for micro-CT to detect bone damage followed by sectioning for histology to detect cartilage damage (safranin O/Fast Green stain) and synovium inflammation (hematoxylin and eosin stain). The right hind limb is used for the isolation of FLS to assess their proliferation and invasiveness ex vivo, using the methods described above, without further treatment.

[6] = Detection of functional IbTX in the circulation of rats by patch-clamp; assay type: in vivo, rat; conditions: enteric-coated capsule
Method: CIA is induced in both male and female Lewis rats by their immunization twice at a week interval with porcine collagen II in emulsion with incomplete Freund's adjuvant. Rats are monitored for clinical signs of arthritis and receive an oral bolus of [1×10^7-1×10^9 CFU] LrIbTX or LrIbTX[R34D], or an enteric-coated capsule containing either 0.1 mg/kg body weight synthetic IbTX, IbTX[R34D] or glycerin on the day after the onset of clinical signs. Age- and sex-matched healthy rats are used for comparison. Blood is collected via the saphenous vein or via terminal cardiac puncture 1 hr, 6 hrs, and 24 hrs after gavage. Whole-cell patch-clamp is used to detect and quantify levels of functional IbTX in the serum of the rats.

CIA = conditions: injected; cited from earlier work
[7] = Immunohistochemistry detection of HA tag in spleen after injection; assay type: in vivo, rat; conditions: subcutaneous injection, spleens collected 3 hours later
Method: FIGS. 10A-10B. LrS235-HA secretes functionally active HA-tagged ShK-235. FIG. 10A. Representative whole-cell Kv1.3 currents measured by patch-clamp in cells stably expressing Kv1.3 before (control, top trace) and after application of ShK-235-HA (bottom trace). FIG. 10B. Healthy Lewis rats received a subcutaneous injection of either ShK-235-HA (left) or of untagged ShK-235 (right). Their spleens were collected 3 hours later and stained to detect the HA tag in brown (arrows). Scale bar: 50 μm.
Two complementary approaches to directly detect ShK-235 in joints and tissues and assess its action on T lymphocyte proliferation are used. L. reuteri LJ01 has been engineered to express HA-tagged ShK-235 (LrS235-HA), because the low immunogenicity of the peptide has made it impossible to raise antibodies against ShK-235. […] ShK-235-HA was injected to healthy rats and their spleens collected. […] HA-tagged ShK-235 is used to detect and localize ShK-235 in the joints, intestines, and secondary lymphoid organs of rats with CIA.

[8] = cells activated overnight, rested and re-stimulated

Kv1.3, sequence (P16390 whole entry): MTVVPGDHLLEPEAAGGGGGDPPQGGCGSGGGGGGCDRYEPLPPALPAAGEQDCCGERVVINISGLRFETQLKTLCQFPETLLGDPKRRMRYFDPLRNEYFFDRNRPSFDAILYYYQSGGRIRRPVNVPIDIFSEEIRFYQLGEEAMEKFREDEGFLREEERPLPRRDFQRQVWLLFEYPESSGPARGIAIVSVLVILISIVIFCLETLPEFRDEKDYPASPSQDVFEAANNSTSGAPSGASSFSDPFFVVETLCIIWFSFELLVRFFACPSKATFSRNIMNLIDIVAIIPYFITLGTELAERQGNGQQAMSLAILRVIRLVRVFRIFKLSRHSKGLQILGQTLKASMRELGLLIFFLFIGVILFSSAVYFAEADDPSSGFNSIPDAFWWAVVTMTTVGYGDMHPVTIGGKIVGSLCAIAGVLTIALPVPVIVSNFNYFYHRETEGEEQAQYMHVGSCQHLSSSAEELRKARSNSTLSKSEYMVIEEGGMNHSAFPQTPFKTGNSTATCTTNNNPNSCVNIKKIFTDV
KCa1.1, sequence (Q12791 whole entry, species assumed): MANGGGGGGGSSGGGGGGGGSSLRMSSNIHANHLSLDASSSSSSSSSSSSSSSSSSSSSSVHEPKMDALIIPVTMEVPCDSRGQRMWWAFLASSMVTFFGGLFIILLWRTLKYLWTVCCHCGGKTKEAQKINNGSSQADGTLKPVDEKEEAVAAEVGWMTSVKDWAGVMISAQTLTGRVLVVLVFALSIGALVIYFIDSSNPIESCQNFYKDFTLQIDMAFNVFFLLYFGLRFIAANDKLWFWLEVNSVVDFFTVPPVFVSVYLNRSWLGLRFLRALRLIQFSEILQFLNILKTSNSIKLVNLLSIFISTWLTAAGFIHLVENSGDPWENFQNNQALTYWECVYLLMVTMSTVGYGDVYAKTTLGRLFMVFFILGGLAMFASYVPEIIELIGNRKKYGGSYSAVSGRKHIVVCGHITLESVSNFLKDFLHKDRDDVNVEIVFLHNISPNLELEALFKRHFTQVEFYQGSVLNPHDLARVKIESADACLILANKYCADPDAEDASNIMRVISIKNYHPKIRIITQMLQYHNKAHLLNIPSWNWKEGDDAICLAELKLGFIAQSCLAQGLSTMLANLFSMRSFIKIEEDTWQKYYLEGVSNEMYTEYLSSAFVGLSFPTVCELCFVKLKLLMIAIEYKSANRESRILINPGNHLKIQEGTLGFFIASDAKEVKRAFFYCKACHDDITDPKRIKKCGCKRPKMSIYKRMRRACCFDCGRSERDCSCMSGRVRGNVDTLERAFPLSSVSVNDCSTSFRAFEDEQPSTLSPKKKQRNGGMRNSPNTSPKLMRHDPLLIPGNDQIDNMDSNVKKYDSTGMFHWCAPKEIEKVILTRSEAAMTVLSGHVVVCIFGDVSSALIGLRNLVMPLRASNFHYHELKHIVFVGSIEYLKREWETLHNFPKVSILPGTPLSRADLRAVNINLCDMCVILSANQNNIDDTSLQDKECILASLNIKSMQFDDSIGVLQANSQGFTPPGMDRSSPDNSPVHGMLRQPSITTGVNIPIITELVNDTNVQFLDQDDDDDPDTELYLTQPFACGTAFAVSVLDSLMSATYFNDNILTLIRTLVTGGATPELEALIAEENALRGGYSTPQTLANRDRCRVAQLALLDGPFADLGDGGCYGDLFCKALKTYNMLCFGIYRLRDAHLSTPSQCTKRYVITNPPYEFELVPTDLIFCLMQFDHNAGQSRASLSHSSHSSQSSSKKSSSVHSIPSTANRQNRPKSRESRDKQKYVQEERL

Question: Which “Selectivity for Kv1.3 over all other ion channels” value [1] does the source give for “ShK derivative, pTyr-AEEA-RSCIDTIPKSRCTAFQCKHSMKYRLSFCRKTCGTC, amidated C-terminus (SEQ ID NO:11) [ShK-186]” here?
Answer: ≥ 700 fold

Question: And the “Selectivity for Kv1.3 versus the closely-related Kv1.1 channel” value [1]?
Answer: 100 fold

Question: What about the “Selectivity for Kv1.3 over other channels” value ([1]; comparator value) of the same molecule?
Answer: 100 fold

Question: What about the “Effect on clearance of infections” value [2] of the same molecule?
Answer: did not prevent the clearance

Question: And the Efficacy [3]?
Answer: demonstrated efficacy

Question: And the Safety profile [4]?
Answer: excellent safety profile

Question: What about the “Sensitivity of TEM cell proliferation to the Kv1.3 blocker” value [5, 8] of the same molecule?
Answer: exquisitely sensitive

Question: And the “Sensitivity of naïve/TCM cell proliferation to the Kv1.3 blocker” value [5, 8]?
Answer: resistant

Question: What about the “Fold more effective in suppressing [3H]-thymidine incorporation by TEM cells compared with naïve/TCM cells” value ([5]; cells from patients with type 1 diabetes or RA, activated immediately after isolation) of the same molecule?
Answer: 10 fold

Question: What about the Efficacy (active plaque psoriasis) of the same molecule?
Answer: showed efficacy

Question: What about the Tolerability (active plaque psoriasis) of the same molecule?
Answer: well tolerated

Question: What about the IC50 (Kv1.3) of the same molecule?
Answer: 0.07 nM

Question: With “iberiotoxin (QFTDVDCSVSKECWSVCKDLFGVDRGKCMGKKCRCYQ; not fully specified (residue 1, bridges); cysteine pairing not given here; UniProt P24663 1-37, looked up) [IbTX]” as the molecule, how does the “Side effects (incontinence, tremors)” value (rats) read?
Answer: No such side effects

Question: What about the “Inhibition of RA-FLS proliferation and invasiveness” value (RA-FLS) of the same molecule?
Answer: inhibit

Question: And the IC50 (KCa1.1)?
Answer: 2 nM

Question: What about the “Reduction of disease severity” value (rat model of RA (PIA)) of the same molecule?
Answer: effective in reducing disease severity

Question: And the CIA disease severity (rat CIA model of RA)?
Answer: milder disease

Question: What about the “Detection of IbTX in the circulation” value [6] of the same molecule?
Answer: transiently detected

Question: And the “Efficacy in CIA” value (CIA)?
Answer: showed efficacy

Question: Which “Side effects (incontinence, tremors)” value (rats) does the source give for `CC(C)(O)[C@H]1O[C@H]2CC[C@@]3(C)[C@@](O)(CC[C@H]4Cc5c([nH]c6ccccc56)[C@@]43C)C2=CC1=O` [paxilline] here?
Answer: induces incontinence and tremors

Question: With “sea anemone Stichodactyla helianthus peptide RSCIDTIPKSRCTAFQCKHSMKYRLSFCRKTCGTC (SEQ ID NO:10) [ShK]” as the molecule, how does the IC50 (Kv1.3) read?
Answer: 0.01 nM

Question: Which “Block of KCa1.1 channels” value (KCa1.1; mutant IbTX) does the source give for “IbTX[R34D] (QFTDVDCSVSKECWSVCKDLFGVDRGKCMGKKCDCYQ; ends and bridges not checked; cysteine pairing not given here; UniProt P24663 1-37, looked up, variant R34D)” here?
Answer: does not block KCa1.1 channels

Question: With “ShK-235-HA: HA-tagged ShK-235 (RSCIDTIPKSRCTAFKCKHSIKYRLSFCRKTCGTCA; ends and bridges not checked; also: HA tag (position not given here))” as the molecule, how does the “Detection in spleen sections” value [7] read?
Answer: detect HA-ShK-235 in spleen sections
